Publication PMC8308508, “Hydralazine and Panobinostat Attenuate Malignant Properties of Prostate Cancer Cell Lines” (Pharmaceuticals, 2021)
pEC50: −log10 of the molar value. Structures can show the parent of a compound that is named as a salt. Where two headings read alike, the source gives them in different places.

How the values were obtained:
DU145 [1] = assay: Invasion transwell assay; assay type: cell-based, Human; details: 24 h after seeding, Hydra 50 µM, Pano 5 nM, differences not statistically significant
Description: (§1) Cell invasion and migration were determined using Falcon® Permeable Support for 24-well Plate with 8.0 µm Transparent PET Membrane (Corning, New York, NY, USA) and Nunc® Cell Culture Inserts in 24-well Nunclon Delta surface plate (Sigma-Aldrich, St. Louis, MO, USA), respectively. Briefly, cells were harvested after treatment and were added to the upper chamber in serum-free medium, according to its optimized density (2.5 × 10^4 cells for every cell line except from LNCaP and 22Rv1 with 5 × 10^4 cells). Media containing 10% FBS was added to the lower chamber. After 24 h incubation at 37 °C and 5% CO2, the cells remaining on the upper side of the membrane were removed with cotton swabs, and those on the lower surface of the membrane were fixed in methanol (Supelco, Sigma-Aldrich, St. Louis, MO, USA), washed in PBS 1 × and stained with Crystal Violet (Active motif, Carlsbad, CA, USA). All the inserts were photographed with stereomicroscope Olympus S2X16 using a digital camera Olympus SC180 (scale bar 1 mm) at 12.5 × magnification. Five fields within each insert were selected and photographed at 115 × and further counted using ImageJ software Cell Counter Plugin. The mean of the counted cells was calculated, divided by the area of the microscope viewing field and then multiplied by the entire area of the insert. Three biological replicates were used for each condition.

PC-3 [2] = assay: Colony formation assay; assay type: cell-based, Human; details: 3 days exposure, 7 additional days, Hydra 100 µM, Pano 10 nM
Description: (§2) PCa cells were seeded in 6-well culture plates at specific concentrations for each cell line, as detailed in Table S1. After epidrug exposure, cells were incubated at 37 °C and 5% CO2 for 7 days and 10 days (LNCaP). Next, colonies were fixed in methanol (Supelco, Sigma-Aldrich, St. Louis, MO, USA), washed in PBS 1 × and stained with Hemacolor Solution II and III (Sigma-Aldrich, St. Louis, MO, USA). Three biological and three experimental replicates were used for each condition.

DU145 [3] = assay: Synergy assay, 6 × 6 checkerboard, growth inhibition by resazurin, CI by CompuSyn; assay type: cell-based; details: Homo sapiens, DU-145, 72 h, three days
Description: Each plate contained 6 × 6 dose matrix blocks with several epidrug concentrations below and above each respective EC50 value. […] The combination index (CI) was calculated using CompuSyn software, where <1 indicates synergism, =1 is an additive effect and >1 indicates antagonism.

[4] = cited from earlier work
LNCaP [5] = assay: Colony formation assay; assay type: cell-based, Human; details: 3 days exposure, 10 additional days, Hydra 100 µM, Pano 5 nM
DU145 [6] = assay: Proliferation assay (BrdU ELISA); assay type: cell-based, Human; details: day 3, Hydra 50 µM, Pano 5 nM, alone or combined, compared with the vehicle
Description: The cell proliferation ELISA BrdU (5-bromo-2′ deoxyuridine) assay (Roche Applied Sciences, Germany) was performed at 72 h of treatment. Cells were plated into 96-well plates at a density of 5000 cells per well, and at 0 h and 72 h of treatment, cells were incubated with 10 µM BrdU labeling solution for 8 h. After removing the culture medium, the cells were fixed with FixDenat solution for 30 min at room temperature. Then, the anti-BrdU-POD antibody (1:100) was added. After three washes with PBS 1 ×, the immune complexes were detected by the subsequent substrate reaction. The reaction product was quantified in a microplate reader (FLUOstar Omega, BMG Labtech, Ortenberg, Germany) at a wavelength of 450 nm with background subtraction at 690 nm. All ODs were normalized for the 0 h time point as well as to the vehicle. Three biological and three experimental replicates were used for each condition.

DU145 [7] = assay: Alkaline comet assay; assay type: cell-based, Human
Description: After epidrug exposure, 30,000 cells were harvested by trypsinization, washed in PBS, re-suspended in 0.5% low-melting point agarose (w/v) and immediately placed on a microscope slide previously covered with 1% normal-melting point agarose (w/v). Then, the cells were immersed in lysis solution (2.5 M NaCl, 100 mM Na2EDTA, 10 mM Tris Base and 1% Triton X-100, pH 10) at 4 °C during 2 h in the dark. Afterwards, the slides were incubated in an alkaline electrophoresis buffer (300 mM NaOH, 1 mM Na2EDTA, pH 13) for 40 min at 4 °C to allow DNA unwinding. Single cell gel electrophoresis was performed on a horizontal electrophoresis platform for 30 min at 21 V, 300 mA, 4 °C. Next, slides were incubated in a neutralization buffer (0.4 M Tris-Base, pH 7.5) for 10 min, followed by staining with DAPI. Comet analysis was done using OpenComet v.1.3.1. Global DNA damage (SSB and DSB) evaluation was determined by measuring tail moment (tail % DNA × means of head × tail distance) and representative pictures taken with Olympus IX51 microscope at 200 × magnification (scale bar 50 μm). A sampling of at least 50 comets was included in the analysis. Three biological replicates were used for each condition.

RWPE-1 [8] = assay: Alkaline comet assay; assay type: cell-based, Human; details: Pano 10 nM
Excerpt: Three biological replicates were used for each condition.

PC-3 [9] = assay: Cell viability assay (resazurin), dose-response; assay type: cell-based; details: Homo sapiens, 72 h; PC-3, day 3, resazurin
Description: (§3) Briefly, PCa cell lines were seeded into 96-well plates at 5000 cells per well and incubated overnight at 37 °C in 5% CO2. Subsequently, cells were treated with a range of concentrations of each epidrug and their respective vehicle (dH2O for hydralazine; dimethyl sulfoxide (DMSO, Sigma-Aldrich, St. Louis, MO, USA) for panobinostat and culture medium for valproic acid) during three consecutive days, exchanging the medium every 24 h. Three experimental replicates of three biological replicates were used for each assay.
(§4) The cell viability was evaluated using resazurin (Canvax Biotech, Córdoba, Spain) at 0 h and 72 h of treatment. The culture medium was removed, and cells were incubated for three hours in the dark at 37 °C and 5% CO2 with 100 μL of 1:10 resazurin solution in culture medium. […] The OD values were corrected using resazurin solution as blank.

WPMY-1 = assay: Cell viability assay (resazurin), dose-response; assay type: cell-based; details: Homo sapiens, WPMY-1, 72 h, WPMY-1, day 3, resazurin
Description: as §3, §4

DU145 [10] = assay: Cell viability assay (resazurin), dose-response; assay type: cell-based; details: Homo sapiens, DU-145, 72 h, DU145, day 3, resazurin
Description: as §3, §4

LNCaP [11] = assay: Cell viability assay (resazurin), dose-response; assay type: cell-based; details: Homo sapiens, 72 h, day 3, resazurin
Description: as §3, §4

22Rv1 = assay: Cell viability assay (resazurin), dose-response; assay type: cell-based; details: Homo sapiens, 22Rv1, 72 h, 22Rv1, day 3, resazurin
Description: as §3, §4

DU145 [12] = details: 3 days exposure, 7 additional days, Hydra 50 µM, Pano 5 nM
Description: as §2

DU145 [13] = assay: Migration transwell assay; assay type: cell-based, Human; details: 24 h, Hydra 50 µM, Pano 5 nM, no significant differences
Description: as §1

[14] = Clinical bioavailability and corresponding concentration at maximum clinical dose; assay type: in vivo; details: 200 mg/day
PC-3 [15] = details: 24 h after seeding, Hydra 100 µM, Pano 10 nM, differences not statistically significant
Description: as §1

RWPE-1 [16] = assay: Cell viability assay (resazurin), dose-response; assay type: cell-based; details: Homo sapiens, RWPE-1, 72 h, RWPE-1, day 3, resazurin
Description: as §3, with “assay. The cell viability was evaluated using resazurin ([…] Biotech, Córdoba, Spain) at 0 h and 72 h of treatment. The culture medium was removed, and cells were incubated for three hours in the dark at 37 °C and 5% CO2 with 100 μL of 1:10 resazurin solution in culture medium. […] The OD values were corrected using resazurin solution as blank.” for “assay.”

Row | SMILES | cell invasion (transwell) (DU145 [1]) | cell proliferation (BrdU incorporation) (DU145 [6]) | pEC50 (PC-3 [9]) | pEC50 (WPMY-1) | pEC50 (DU145 [10]) | pEC50 (LNCaP [11]) | pEC50 (22Rv1) | also measured
1 | Cc1[nH]c2ccccc2c1CCNCc1ccc(/C=C/C(=O)NO)cc1 [Panobinostat] | but not panobinostat, also reduced invasion | but not panobinostat, led to considerable proliferation inhibition | 7.54 | 7.62 | 8.16 | 7.61 | 7.85 | colony formation (PC-3 [2]): showed a higher impact; inhibition at 0.005 µM (DU145 [3]; panobinostat alone at the selected concentration (5 nM, Table 1)): 48.9%; bioavailability [4]: 21.4%; colony formation (LNCaP [5]): showed a higher impact; DNA damage (tail moment, comet assay) (DU145 [7]; DU145, Hydra 50 µM, Pano 5 nM, alone or combined): increased DNA damage; tail moment (comet assay) (RWPE-1 [8]): significantly increased
2 | NNc1nncc2ccccc12 [Hydralazine, Hydralazine hydrochloride] | reduced invasion | considerable proliferation inhibition | 3.84 |  | 4.30 | 4.06 | 4.14 | inhibition at 50 µM (DU145 [3]; hydralazine alone at the selected concentration (50 µM, Table 1)): 42.8%; bioavailability ([4]; fast acetylators): 16%; bioavailability ([4]; slow acetylators): 35%; colony formation (clonogenic capacity) (DU145 [12]): almost no colonies were apparent; cell migration (transwell) (DU145 [13]): reduced cell migration; DNA damage (tail moment, comet assay) (DU145 [7]): increased DNA damage; concentration corresponding to the maximum clinically recommended dose ([14]; bioavailability 16%, fast acetylators): ~0.2 M; concentration corresponding to the maximum clinically recommended dose ([14]; bioavailability 35%, slow acetylators): ~0.44 M; cell invasion (transwell) (PC-3 [15]): two times higher than that of panobinostat
3 | CCCC(CCC)C(=O)O [Valproic acid] |  |  | 2.07 | 2.35 | 2.52 to 2.70 | 2.52 to 2.70 | 2.52 to 2.70 | pEC50 (RWPE-1 [16]): 2.05
